Laboratory results taken from ChEMBL document CHEMBL3132769, “Fragment growing to retain or alter the selectivity of anchored kinase hinge-binding fragments” (Medchemcomm, 2014).

How the values were obtained:
[1] = tested on: Fibroblast growth factor receptor 2 (Homo sapiens), P21802 [N549H]; test: Inhibition of human FGFR2 N549H mutant catalytic domain expressed in baculovirus assessed as substrate phosphorylation using fluorescence-labelled peptides as substrate at 0.06 uM after 90 mins by microfluidic peptide phosphorylation assay
Sequence of Fibroblast growth factor receptor 2 (Homo sapiens), P21802 [N549H] (P21802 whole entry N549H, the tested form may be a part, canonical isoform): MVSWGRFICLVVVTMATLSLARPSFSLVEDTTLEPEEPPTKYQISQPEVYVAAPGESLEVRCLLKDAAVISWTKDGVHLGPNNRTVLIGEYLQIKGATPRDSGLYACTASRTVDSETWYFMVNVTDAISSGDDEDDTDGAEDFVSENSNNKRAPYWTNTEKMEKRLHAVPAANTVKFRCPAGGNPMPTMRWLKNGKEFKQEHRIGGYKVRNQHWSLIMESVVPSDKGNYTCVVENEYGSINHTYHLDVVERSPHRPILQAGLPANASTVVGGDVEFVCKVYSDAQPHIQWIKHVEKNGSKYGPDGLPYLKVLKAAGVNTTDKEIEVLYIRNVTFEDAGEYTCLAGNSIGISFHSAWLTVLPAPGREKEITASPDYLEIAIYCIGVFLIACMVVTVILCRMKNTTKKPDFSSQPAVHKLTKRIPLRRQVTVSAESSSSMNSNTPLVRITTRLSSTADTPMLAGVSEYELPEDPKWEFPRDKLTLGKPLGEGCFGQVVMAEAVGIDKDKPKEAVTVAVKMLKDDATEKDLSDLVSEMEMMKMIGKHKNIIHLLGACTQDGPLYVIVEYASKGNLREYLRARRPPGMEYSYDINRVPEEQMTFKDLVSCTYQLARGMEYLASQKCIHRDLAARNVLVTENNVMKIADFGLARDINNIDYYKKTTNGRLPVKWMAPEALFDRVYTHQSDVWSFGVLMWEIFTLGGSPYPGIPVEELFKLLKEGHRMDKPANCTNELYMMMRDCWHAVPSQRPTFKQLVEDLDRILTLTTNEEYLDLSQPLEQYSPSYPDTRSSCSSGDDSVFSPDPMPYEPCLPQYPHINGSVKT

[2] = target: Casein kinase I isoform alpha (Homo sapiens) (UniProt P48729); test: Inhibition of human full length CSNK1A1 expressed in baculovirus assessed as substrate phosphorylation using fluorescence-labelled peptides as substrate at 70 uM after 90 mins by microfluidic peptide phosphorylation assay
Sequence of Casein kinase I isoform alpha (Homo sapiens) (P48729 2-337 limits assumed): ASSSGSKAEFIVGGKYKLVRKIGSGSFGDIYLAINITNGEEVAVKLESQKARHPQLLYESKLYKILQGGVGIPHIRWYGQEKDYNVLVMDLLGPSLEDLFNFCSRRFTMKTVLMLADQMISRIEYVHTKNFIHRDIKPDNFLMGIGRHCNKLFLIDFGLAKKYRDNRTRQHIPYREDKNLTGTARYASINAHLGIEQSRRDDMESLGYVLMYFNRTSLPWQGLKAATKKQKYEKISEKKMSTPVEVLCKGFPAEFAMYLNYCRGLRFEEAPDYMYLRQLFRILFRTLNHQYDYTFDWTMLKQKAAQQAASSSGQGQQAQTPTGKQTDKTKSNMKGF

[3] = target: Tyrosine-protein kinase Lck (Homo sapiens) (UniProt P06239); test: Inhibition of human full length LCK expressed in baculovirus assessed as substrate phosphorylation using fluorescence-labelled peptides as substrate at 0.2 uM after 90 mins by microfluidic peptide phosphorylation assay
Sequence of Tyrosine-protein kinase Lck (Homo sapiens) (P06239 2-509 limits assumed): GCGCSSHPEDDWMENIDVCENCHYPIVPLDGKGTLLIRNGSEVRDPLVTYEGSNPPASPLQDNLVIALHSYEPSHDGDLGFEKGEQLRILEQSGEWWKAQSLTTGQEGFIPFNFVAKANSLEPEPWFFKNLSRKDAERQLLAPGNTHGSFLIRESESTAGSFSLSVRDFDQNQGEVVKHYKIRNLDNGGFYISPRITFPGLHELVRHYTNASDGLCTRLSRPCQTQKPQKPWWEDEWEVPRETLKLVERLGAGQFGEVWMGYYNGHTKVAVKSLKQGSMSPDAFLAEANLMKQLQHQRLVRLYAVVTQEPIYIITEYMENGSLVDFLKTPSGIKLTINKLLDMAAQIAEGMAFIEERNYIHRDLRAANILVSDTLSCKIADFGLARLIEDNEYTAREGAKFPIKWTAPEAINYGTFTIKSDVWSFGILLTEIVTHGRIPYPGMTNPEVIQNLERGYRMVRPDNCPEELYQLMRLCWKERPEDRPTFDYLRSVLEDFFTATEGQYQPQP

[4] = target: T1, Serine/threonine-protein kinase DCLK2 (Homo sapiens) (UniProt Q8N568); test: Inhibition of human full length DCAMKL2 expressed in baculovirus assessed as substrate phosphorylation using fluorescence-labelled peptides as substrate at 0.2 uM after 90 mins by microfluidic peptide phosphorylation assay
T1 sequence (whole entry): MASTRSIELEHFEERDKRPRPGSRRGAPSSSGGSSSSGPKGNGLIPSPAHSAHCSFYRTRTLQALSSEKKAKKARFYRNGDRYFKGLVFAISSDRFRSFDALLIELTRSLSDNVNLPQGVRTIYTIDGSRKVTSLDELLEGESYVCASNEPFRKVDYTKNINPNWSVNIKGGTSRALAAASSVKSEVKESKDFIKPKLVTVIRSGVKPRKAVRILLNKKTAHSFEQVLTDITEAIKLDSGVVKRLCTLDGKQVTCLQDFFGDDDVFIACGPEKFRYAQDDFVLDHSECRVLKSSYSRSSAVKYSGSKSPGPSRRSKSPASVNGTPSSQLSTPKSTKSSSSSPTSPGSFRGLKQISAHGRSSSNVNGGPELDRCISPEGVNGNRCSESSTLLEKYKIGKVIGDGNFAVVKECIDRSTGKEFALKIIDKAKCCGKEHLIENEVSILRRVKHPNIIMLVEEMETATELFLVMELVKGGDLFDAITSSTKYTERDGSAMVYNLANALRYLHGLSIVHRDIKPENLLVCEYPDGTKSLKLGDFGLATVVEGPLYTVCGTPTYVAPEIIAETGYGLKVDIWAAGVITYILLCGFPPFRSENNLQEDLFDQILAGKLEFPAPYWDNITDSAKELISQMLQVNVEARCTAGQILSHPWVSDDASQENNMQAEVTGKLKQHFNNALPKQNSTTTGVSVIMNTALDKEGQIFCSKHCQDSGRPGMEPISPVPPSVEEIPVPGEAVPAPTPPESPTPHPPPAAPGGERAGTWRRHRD

Homo sapiens = species on record: Homo sapiens; test: Inhibition of human P70S6K catalytic domain expressed in baculovirus assessed as substrate phosphorylation using fluorescence-labelled peptides as substrate at 95 uM after 90 mins by microfluidic peptide phosphorylation assay
[5] = target: Ribosomal protein S6 kinase alpha-1 (Homo sapiens) (UniProt Q15418); test: Inhibition of human full length RSK1 expressed in baculovirus assessed as substrate phosphorylation using fluorescence-labelled peptides as substrate at 95 uM after 90 mins by microfluidic peptide phosphorylation assay
Sequence of Ribosomal protein S6 kinase alpha-1 (Homo sapiens) (Q15418 whole entry): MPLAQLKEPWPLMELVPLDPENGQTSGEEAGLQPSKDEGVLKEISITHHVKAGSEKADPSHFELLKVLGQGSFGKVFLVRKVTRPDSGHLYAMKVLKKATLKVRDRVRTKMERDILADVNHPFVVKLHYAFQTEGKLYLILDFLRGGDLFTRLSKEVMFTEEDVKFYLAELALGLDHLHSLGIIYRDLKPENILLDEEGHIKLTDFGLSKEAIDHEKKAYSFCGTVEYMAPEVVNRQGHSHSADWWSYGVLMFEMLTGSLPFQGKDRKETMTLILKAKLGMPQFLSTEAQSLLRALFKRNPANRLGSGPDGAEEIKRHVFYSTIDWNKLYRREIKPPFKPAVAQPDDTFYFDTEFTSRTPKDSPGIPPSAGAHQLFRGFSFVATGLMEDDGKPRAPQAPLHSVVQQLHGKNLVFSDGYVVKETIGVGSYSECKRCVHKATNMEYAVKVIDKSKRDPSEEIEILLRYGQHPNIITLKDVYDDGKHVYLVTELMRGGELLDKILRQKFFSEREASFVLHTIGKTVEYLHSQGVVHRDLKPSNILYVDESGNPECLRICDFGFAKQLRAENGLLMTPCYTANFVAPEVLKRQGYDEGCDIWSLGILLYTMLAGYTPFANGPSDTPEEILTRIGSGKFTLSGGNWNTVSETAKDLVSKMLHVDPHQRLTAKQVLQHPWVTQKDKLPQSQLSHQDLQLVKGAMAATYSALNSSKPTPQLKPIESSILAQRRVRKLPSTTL

[6] = target: Ribosomal protein S6 kinase alpha-2 (Homo sapiens) (UniProt Q15349); test: Inhibition of human full length RSK3 expressed in baculovirus assessed as substrate phosphorylation using fluorescence-labelled peptides as substrate at 9 uM after 90 mins by microfluidic peptide phosphorylation assay
Sequence of Ribosomal protein S6 kinase alpha-2 (Homo sapiens) (Q15349 whole entry, the tested form may be a part): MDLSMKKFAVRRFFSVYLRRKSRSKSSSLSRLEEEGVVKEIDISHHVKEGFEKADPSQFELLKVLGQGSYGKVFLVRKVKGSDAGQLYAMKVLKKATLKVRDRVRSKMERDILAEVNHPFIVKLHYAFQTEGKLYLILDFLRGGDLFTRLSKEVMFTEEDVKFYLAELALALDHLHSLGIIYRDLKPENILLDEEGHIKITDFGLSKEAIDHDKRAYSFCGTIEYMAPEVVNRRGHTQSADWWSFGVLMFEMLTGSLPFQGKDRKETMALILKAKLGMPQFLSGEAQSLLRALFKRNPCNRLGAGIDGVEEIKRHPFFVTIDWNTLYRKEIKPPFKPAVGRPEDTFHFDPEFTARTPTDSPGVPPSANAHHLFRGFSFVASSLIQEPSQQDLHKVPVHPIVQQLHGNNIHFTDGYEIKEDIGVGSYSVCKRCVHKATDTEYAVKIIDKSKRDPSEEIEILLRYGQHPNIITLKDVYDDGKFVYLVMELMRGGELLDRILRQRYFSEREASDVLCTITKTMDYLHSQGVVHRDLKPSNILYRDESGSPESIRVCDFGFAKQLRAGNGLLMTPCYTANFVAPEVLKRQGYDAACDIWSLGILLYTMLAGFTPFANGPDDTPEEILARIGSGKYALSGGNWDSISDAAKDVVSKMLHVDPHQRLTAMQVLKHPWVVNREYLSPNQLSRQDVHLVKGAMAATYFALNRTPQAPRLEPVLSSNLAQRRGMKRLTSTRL

[7] = target: Tyrosine-protein kinase Fer (Homo sapiens) (UniProt P16591); test: Inhibition of human FER catalytic domain expressed in baculovirus assessed as substrate phosphorylation using fluorescence-labelled peptides as substrate at 1000 uM after 90 mins by microfluidic peptide phosphorylation assay
[8] = target: Fibroblast growth factor receptor 4 (Homo sapiens) (UniProt P22455); test: Inhibition of human FGFR4 catalytic domain expressed in baculovirus assessed as substrate phosphorylation using fluorescence-labelled peptides as substrate at 1000 uM after 90 mins by microfluidic peptide phosphorylation assay
[9] = target: Epidermal growth factor receptor (Homo sapiens) (UniProt P00533); test: Inhibition of human EGFR catalytic domain expressed in baculovirus assessed as substrate phosphorylation using fluorescence-labelled peptides as substrate at 1000 uM after 90 mins by microfluidic peptide phosphorylation assay
Sequence of Epidermal growth factor receptor (Homo sapiens) (P00533 whole entry, the tested form may be a part): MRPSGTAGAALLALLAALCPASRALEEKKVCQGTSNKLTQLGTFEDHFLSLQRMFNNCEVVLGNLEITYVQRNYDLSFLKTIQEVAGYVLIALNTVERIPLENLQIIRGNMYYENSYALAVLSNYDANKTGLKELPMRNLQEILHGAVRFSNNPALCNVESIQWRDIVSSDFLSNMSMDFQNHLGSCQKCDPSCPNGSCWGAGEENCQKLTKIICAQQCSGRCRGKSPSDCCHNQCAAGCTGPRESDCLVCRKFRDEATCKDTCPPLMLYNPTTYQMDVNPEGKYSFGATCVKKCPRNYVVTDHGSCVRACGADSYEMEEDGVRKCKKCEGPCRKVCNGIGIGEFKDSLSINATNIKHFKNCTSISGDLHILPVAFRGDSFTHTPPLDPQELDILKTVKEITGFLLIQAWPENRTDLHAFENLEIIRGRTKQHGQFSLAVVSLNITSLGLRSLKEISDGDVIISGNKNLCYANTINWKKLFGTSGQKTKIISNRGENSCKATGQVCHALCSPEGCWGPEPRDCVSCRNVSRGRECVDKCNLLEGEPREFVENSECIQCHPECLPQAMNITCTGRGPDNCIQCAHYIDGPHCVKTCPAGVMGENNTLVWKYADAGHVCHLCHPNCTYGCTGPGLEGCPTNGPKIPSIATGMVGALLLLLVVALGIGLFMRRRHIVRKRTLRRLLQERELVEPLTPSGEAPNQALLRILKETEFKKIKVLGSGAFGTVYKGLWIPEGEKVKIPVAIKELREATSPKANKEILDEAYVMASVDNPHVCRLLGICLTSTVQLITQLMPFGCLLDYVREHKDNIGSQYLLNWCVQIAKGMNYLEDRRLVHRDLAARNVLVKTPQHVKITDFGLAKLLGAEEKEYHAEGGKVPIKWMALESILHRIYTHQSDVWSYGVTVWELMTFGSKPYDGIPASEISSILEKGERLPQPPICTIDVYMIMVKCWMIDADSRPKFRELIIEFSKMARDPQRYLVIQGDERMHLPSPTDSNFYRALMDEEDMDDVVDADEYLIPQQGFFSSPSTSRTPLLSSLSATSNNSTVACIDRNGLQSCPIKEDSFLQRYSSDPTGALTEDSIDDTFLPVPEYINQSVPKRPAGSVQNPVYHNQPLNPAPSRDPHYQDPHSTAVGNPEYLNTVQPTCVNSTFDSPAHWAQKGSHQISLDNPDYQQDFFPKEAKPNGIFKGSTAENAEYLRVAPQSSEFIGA

[10] = target: Rho-associated protein kinase 2 (Homo sapiens) (UniProt O75116); test: Inhibition of human ROCK2 catalytic domain expressed in baculovirus assessed as substrate phosphorylation using fluorescence-labelled peptides as substrate at 2 uM after 90 mins by microfluidic peptide phosphorylation assay
[11] = target: T2, Serine/threonine-protein kinase 3 (Homo sapiens) (UniProt Q13188); test: Inhibition of human full length MST2 expressed in baculovirus assessed as substrate phosphorylation using fluorescence-labelled peptides as substrate at 8 uM after 90 mins by microfluidic peptide phosphorylation assay
T2 sequence (whole entry): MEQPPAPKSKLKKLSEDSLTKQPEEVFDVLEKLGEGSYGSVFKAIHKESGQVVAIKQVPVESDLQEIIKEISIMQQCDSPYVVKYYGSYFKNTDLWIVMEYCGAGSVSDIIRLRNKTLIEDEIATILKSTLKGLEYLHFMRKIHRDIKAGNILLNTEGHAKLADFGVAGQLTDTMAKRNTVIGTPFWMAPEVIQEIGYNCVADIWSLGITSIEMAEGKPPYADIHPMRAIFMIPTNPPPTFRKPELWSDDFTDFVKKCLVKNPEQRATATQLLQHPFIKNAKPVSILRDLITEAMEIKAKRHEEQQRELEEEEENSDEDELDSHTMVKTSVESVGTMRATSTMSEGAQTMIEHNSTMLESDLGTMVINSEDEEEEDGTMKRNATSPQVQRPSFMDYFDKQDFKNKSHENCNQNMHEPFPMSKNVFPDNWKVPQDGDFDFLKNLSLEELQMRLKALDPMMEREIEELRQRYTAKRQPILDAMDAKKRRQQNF

[12] = target: Protein kinase C theta type (Homo sapiens) (UniProt Q04759); test: Inhibition of human truncated PKC theta expressed in baculovirus assessed as substrate phosphorylation using fluorescence-labelled peptides as substrate at 0.1 uM after 90 mins by microfluidic peptide phosphorylation assay
Sequence of Protein kinase C theta type (Homo sapiens) (Q04759 whole entry, looked up, the tested form may be a part): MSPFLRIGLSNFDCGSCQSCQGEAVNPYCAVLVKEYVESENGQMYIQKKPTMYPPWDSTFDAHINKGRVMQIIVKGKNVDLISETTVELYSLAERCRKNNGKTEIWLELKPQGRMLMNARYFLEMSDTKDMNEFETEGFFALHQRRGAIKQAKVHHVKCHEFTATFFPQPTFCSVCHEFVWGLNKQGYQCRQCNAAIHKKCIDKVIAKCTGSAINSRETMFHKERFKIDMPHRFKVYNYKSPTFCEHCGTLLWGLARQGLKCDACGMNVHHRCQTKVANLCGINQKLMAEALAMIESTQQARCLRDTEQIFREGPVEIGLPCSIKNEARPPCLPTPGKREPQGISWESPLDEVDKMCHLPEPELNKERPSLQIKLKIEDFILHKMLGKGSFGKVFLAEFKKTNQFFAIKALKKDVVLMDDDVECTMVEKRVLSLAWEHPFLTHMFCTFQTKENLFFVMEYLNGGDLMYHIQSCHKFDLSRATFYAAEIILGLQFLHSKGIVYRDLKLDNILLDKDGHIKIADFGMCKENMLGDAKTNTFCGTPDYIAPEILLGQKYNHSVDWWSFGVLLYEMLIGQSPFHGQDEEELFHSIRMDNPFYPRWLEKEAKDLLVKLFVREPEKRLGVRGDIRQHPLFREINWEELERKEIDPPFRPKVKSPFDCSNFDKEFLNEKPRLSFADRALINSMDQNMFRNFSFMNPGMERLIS

[13] = target: T3, Aurora kinase C (Homo sapiens) (UniProt Q9UQB9); test: Inhibition of human full length AurC expressed in baculovirus assessed as substrate phosphorylation using fluorescence-labelled peptides as substrate at 0.1 uM after 90 mins by microfluidic peptide phosphorylation assay
T3 sequence (whole entry): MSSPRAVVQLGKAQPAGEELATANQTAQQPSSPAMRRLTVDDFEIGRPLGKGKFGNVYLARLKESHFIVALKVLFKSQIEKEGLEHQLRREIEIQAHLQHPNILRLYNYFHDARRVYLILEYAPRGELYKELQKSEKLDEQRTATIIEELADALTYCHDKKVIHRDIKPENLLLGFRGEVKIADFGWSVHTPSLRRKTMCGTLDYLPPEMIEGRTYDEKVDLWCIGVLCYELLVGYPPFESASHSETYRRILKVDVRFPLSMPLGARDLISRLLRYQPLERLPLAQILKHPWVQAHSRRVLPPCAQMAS

**Q.** Which inhibition [1] does the source give for `NC1(Cc2ccc(Cl)cc2)CCN(c2ncnc3[nH]ccc23)CC1` here?
**A.** 5%

**Q.** How did the inhibition [2] turn out when `CNCc1ccc(-c2ncnc3[nH]cnc23)cc1` was run?
**A.** 45.5%

**Q.** `Clc1ccc(C2(c3ccc(-c4ncnc5[nH]cnc45)cc3)CCNCC2)cc1` was tested. Which inhibition [3] did it give?
**A.** 35%

**Q.** And the inhibition [4]?
**A.** 10%

**Q.** With `NCCc1ccc(-c2ncnc3[nH]cnc23)cc1` as the molecule, how does the inhibition (Homo sapiens) read?
**A.** 49%

**Q.** What about the inhibition [5] of the same molecule?
**A.** 83.5%

**Q.** How did the inhibition [6] turn out when `NCC1CN(c2ncnc3[nH]c4cnccc4c23)CCO1` (centres undefined) was run?
**A.** 95.5%

**Q.** How did the inhibition [7] turn out when `c1cnc2[nH]ccc2c1` was run?
**A.** 18%

**Q.** And the inhibition [8]?
**A.** 28.5%

**Q.** What about the inhibition [9] of the same molecule?
**A.** 13.5%

**Q.** For `NC1CCN(c2ncnc3[nH]ccc23)CC1`, which inhibition [10] is on record?
**A.** 44%

**Q.** Which inhibition [11] does the source give for `NCC1CCN(c2ncnc3[nH]ccc23)CC1` here?
**A.** 73%

**Q.** With `C[C@H](CN(C)C)Oc1nc(Nc2cc3cccc(Cl)c3cn2)cnc1C#N` as the molecule, how does the inhibition [12] read?
**A.** 5%

**Q.** What about the inhibition [13] of the same molecule?
**A.** 1%
